3 compounds from patent US10195285B2, “AGTR1 aptamer-anticancer drug complex for cancer cell chemotherapy” (KOREA UNIVERSITY RESEARCH AND BUSINESS FOUNDATION, priority 2016, dated 2019) can be followed below.

Data set [1] has as its system AGTR1-negative breast cancer BT474 cell line. Briefly: p-His3 (mitotic arrest marker) ICC/confocal in co-culture, AGTR1-negative cells. Format: cell-based, human. Particulars: 10 nM, 24 hr; co-culture 1:1 with MCF7-AGTR1; HER2-expressed cells = BT474. The procedure:
(§1) (1) As produced in Example 1, the AGTR1-positive breast cancer MCF7 cell line (MCF7-AGTR1) and the AGTR1-negative breast cancer BT474 cell line (typically, MCF7 is a HER2-negative breast cancer cell line and BT474 is a HER2-positive breast cancer cell line) were co-cultured at a ratio of 1:1, and HER2 and a mitotic arrest marker, namely phospho-Histone H3 (p-[…]), were stained with ICC, the nuclei of which were stained with DAPI, and were then treated with a control (DMSO), DM1, and Aptamer-DM1 at a concentration of 10 nM for 24 hr. Thereafter, the nuclei (blue), p-[…] (green), and HER2 (red) were imaged using a confocal microscope. The number of cells in which p-[…] was detected was quantified based on whether or not AGTR1 was expressed. During the staining procedure, the MCF7-AGTR1 and BT474 cells cultured on 8-well chamber slides were fixed with 4% paraformaldehyde, washed with PBS, and cultured for 10 min with 0.2% Triton X-100. Thereafter, the cells were cultured overnight at 4° C. with primary antibodies in an antibody dilution buffer and then cultured at room temperature for 2 hr with fluorescence-conjugated secondary antibodies. Thereafter, the cells were mounted on ProLong Gold Antifade Reagent containing DAPI (4',6'-diamidine-2'-phenylindole dihydrochloride).

Data set [2] has as its system AGTR1-positive breast cancer cell line (MCF7-AGTR1). Put plainly: Apoptosis rate (sub-G1%) by PI DNA content flow cytometry, AGTR1-positive cells. Format: cell-based, human. Particulars: 10 nM, 48 hr. How it is done: (§2) (1) The AGTR1-positive breast cancer cell line (MCF7-AGTR1) and the AGTR1-negative breast cancer cell line (BT474) were treated with a control (DMSO), DM1, Aptamer, and Aptamer-DM1 at a concentration of 10 nM for 48 hr, after which the cells were acquired and fixed with 95% ethanol containing 0.5% Tween-20 for 24 hr and cultured for 30 min with propidium iodide (PI, 50 μg/ml) and RNase (50 μg/ml). Thereafter, the apoptosis rate (sub-G1%) of cancer cells was measured through DNA content analysis using flow cytometry.
(§3) (2) Typically, the cell cycle includes, depending on the amount of DNA in cells, G1 (cell growth phase), S (cell replication phase), and G2/M (cell mitotic phase). […] The results of apoptosis are represented by the percentage of sub-G1 in the cell cycle.

Data set [3] has as its system AGTR1-positive breast cancer MCF7 cell line (MCF7-AGTR1). Put plainly: p-His3 (mitotic arrest marker) ICC/confocal in co-culture, AGTR1-positive cells. Format: cell-based, human. As to conditions: 10 nM, 24 hr; co-culture 1:1 with BT474; HER2-not-expressed cells = MCF7-AGTR1. The procedure:
as §1

The test system of data set [4] is AGTR1-negative breast cancer cell line (BT474). Put plainly: Apoptosis rate (sub-G1%) by PI DNA content flow cytometry, AGTR1-negative cells. Format: cell-based, human. As to conditions: 10 nM, 48 hr. The procedure:
as §2, §3
(In general: In flow cytometry, cells or beads pass a laser one at a time.)

A further data set relates to MCF7-AGTR1 cancer cells. Briefly: Tumor volume in breast cancer disease animal model. Format: in vivo, BALB/c nude mice. Particulars: 0.75 mg/kg intraperitoneally three times a week, measured for 3 weeks. How it is done: (1) Starting from the 4th day after MCF7-AGTR1 cancer cells (3×10^6 cells) were inoculated into the fourth mammary fat pads of immunodeficient 6-week-old female BALB/c nude mice, Aptamer (0.75 mg/kg) and Aptamer-DM1 (0.5 mg/kg, 0.75 mg/kg) were intraperitoneally administered three times a week. Then, the tumor volume was measured for 3 weeks. The body weights of mice were measured for 3 weeks. The tumor volume (V) was measured using a caliper and calculated according to V=(length×width^2)/2. In a Terminal deoxynucleotidyl transferase dUTP Nick End Labeling (TUNEL) assay, the tumors were removed from the mice, fixed in 10% neutral buffered formalin, and embedded in paraffin. The 4 μm thick tissue section was mounted on a positively charged glass slide, deparaffinized with xylene, and […] through a graded alcohol series. After antigen retrieval, the above tissue section was boiled in a citric acid buffer (pH 6.0) and immunofluorescence was performed. In situ TUNEL was performed on the above tissue section using a TUNEL kit (Roche Applied Sciences, Penzberg, GER), and the images thereof were obtained using a confocal scanning microscope.

The test system of data set [5] is AGTR1-overexpressed SK-BR-3. Briefly: Confocal imaging of Cy3-coupled aptamers binding to / internalizing in AGTR1-positive cells. Format: cell-based, human. Particulars: 500 nM Cy3-coupled aptamer, 10^7 cells, room temperature; compared among SEQ ID NOS:1 to 6. The procedure: 1) 100 μl (10^7 cells) of target cells, namely AGTR1-overexpressed SK-BR-3, and 100 μl of 500 nM aptamer were reacted at room temperature and imaged using a confocal microscope. The aptamers have respective base sequences of SEQ ID NOS:1 to 6, the end of each of which is coupled with a fluorescence dye Cy3.

{SH} = thiol group (3'-OH replaced by SH), used for disulfide linkage to a drug

Regarding `COc1cc2cc(c1Cl)N(C)C(=O)C[C@H](OC(=O)[C@H](C)N(C)C(C)=O)[C@]1(C)O[C@H]1[C@H](C)[C@@H]1C[C@@](O)(NC(=O)O1)[C@H](OC)/C=C/C=C(\C)C2` [DM1, maytansine], the “expression of p-His3 (confocal, FIG. 4)” value in data set [1] and in data set [3] was “observed regardless of whether HER2 was expressed or not” each time. The “apoptosis rate (sub-G1%) (FIG. 6)” value in data set [2] and in data set [4] was “relatively high” throughout.
For “Aptamer: DNA aptamer 5'-AAGTCGTCTTTGCCAAATACCGGTCTGTCGGTGGGTATTG-3' (SEQ ID NO:4) with thiol group introduced at the 3' terminus (DNA, 3' {SH}, backbone not given here)”, the “apoptosis rate (sub-G1%) (FIG. 6)” value in data set [2] and in data set [4] was “remarkably low” in each case. Further, the “growth of tumors (tumor volume, FIG. 7)” value with MCF7-AGTR1 cancer cells was “partially inhibited”.
Take “SEQ ID NO:4: ssDNA aptamer AAGTCGTCTTTGCCAAATACCGGTCTGTCGGTGGGTATTG; Cy3-coupled in the confocal test (DNA, backbone not given here; further chemistry not fully specified)”: the “internalization / fluorescence intensity (confocal, FIG. 3)” value in data set [5] is given as “strongest fluorescence intensity”.
